Series [1] addresses T1, K2P2.1(TREK-1) K271Q (Mus musculus, UniProt P97438, K286Q).
T1 sequence (P97438 1-411 isoform P97438-2 K271Q): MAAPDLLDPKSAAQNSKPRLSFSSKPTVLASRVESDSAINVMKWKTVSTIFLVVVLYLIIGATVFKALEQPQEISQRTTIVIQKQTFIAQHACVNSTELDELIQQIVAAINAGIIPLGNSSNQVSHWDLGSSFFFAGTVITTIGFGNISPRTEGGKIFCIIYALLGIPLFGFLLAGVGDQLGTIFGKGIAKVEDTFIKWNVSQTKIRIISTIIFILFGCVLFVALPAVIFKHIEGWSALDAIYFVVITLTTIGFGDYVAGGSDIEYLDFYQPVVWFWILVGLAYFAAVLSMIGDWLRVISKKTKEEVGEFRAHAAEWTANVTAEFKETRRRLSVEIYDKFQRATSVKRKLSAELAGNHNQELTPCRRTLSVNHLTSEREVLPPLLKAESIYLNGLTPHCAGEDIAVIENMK
Kind of series: Two electrode voltage clamp in Xenopus oocytes, K2P2.1. Format: cell-based. To be noted: for effect of activator (current potentiation at 0 mV) compared with wild type: 10 μM BL-1249, 30 μM ML67-33.

The target of the next series is T2, K2P4.1(TRAAK) Q258K (Homo sapiens, UniProt Q9NYG8, Q232K).
T2 sequence (Q9NYG8 1-419 isoform Q9NYG8-2 Q258K): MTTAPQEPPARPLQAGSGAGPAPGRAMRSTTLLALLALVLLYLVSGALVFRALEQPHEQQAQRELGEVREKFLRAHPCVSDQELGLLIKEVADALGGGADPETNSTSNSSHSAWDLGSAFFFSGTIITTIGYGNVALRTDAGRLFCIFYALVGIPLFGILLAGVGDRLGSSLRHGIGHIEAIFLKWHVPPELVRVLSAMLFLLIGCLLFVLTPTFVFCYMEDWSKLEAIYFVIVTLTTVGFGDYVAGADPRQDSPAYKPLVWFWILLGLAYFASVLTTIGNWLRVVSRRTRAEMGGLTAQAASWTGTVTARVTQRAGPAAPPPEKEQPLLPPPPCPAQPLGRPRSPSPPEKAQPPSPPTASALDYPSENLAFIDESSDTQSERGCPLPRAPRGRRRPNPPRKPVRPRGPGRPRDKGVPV
Kind of series: Two electrode voltage clamp in Xenopus oocytes, K2P4.1. To be noted: for effect of activator (current potentiation at 0 mV) compared with wild type: Xenopus oocytes, K2P4.1(TRAAK) Q258K, 10 μM BL-1249, 30 μM ML67-33. The series is classed as cell-based.

Series [2] addresses T3, K2P2.1(TREK-1) (Mus musculus, UniProt P97438).
T3 sequence (P97438 1-411 isoform P97438-2): T1 sequence (P97438 1-411 isoform P97438-2 K271Q) with Q271K
Put plainly: Two electrode voltage clamp in Xenopus oocytes, K2P2.1. The series is classed as cell-based.

For another series, the target named is T4, K2P10.1(TREK-2) (Homo sapiens, UniProt P57789).
T4 sequence (P57789 1-543 isoform P57789-3): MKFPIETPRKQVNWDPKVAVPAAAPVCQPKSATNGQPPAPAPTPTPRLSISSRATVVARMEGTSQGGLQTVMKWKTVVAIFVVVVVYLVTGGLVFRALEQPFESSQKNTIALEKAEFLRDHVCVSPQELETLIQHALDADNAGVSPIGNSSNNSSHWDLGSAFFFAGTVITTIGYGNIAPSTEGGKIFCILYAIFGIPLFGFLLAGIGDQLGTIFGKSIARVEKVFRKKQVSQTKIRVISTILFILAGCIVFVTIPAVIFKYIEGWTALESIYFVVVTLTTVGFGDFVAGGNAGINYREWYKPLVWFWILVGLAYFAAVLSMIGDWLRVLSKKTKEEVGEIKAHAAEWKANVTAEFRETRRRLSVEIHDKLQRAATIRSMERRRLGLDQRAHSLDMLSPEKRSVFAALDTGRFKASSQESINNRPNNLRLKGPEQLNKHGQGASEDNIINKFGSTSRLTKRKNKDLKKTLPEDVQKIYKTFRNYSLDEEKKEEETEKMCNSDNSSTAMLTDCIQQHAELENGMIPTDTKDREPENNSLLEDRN
Put plainly: Two electrode voltage clamp in Xenopus oocytes, K2P10.1. Format: cell-based.

The next series addresses T5, K2P4.1(TRAAK) (Homo sapiens, UniProt Q9NYG8).
T5 sequence (Q9NYG8 1-419 isoform Q9NYG8-2): T2 sequence (Q9NYG8 1-419 isoform Q9NYG8-2 Q258K) with K258Q
Kind of series: Two electrode voltage clamp in Xenopus oocytes, K2P4.1. The series is classed as cell-based.

Series [3] concerns the target T3, K2P2.1(TREK-1). Put plainly: HEK293 inside-out patches, 150 mM K+[out]/150 mM Rb+[in], rectification. To be noted: 5 μM compound. Format: cell-based.
A short description of series [4]: Solubility in aqueous solutions. Format: physicochemical.
Another series concerns the target K2P2.1(TREK-1)cryst (Mus musculus, UniProt P97438, A104R/A107P/E321A/I103L/K99R/N110S/N134A/Q100E/Q105A/S111D/S315A/T101K/T112Q). Put plainly: cell-based.
Series [5] has as its target T3, K2P2.1(TREK-1). Kind of series: cell-based.
Series [6] addresses T1, K2P2.1(TREK-1) K271Q. Put plainly: HEK cell patch clamp response to arachidonic acid, K2P2.1. To be noted: HEK cells, 10 μM AA. The series is classed as cell-based.

Residue numbers refer to the chain shown, from its start.

Sequence of K2P2.1(TREK-1)cryst (P97438 36-337 K99R/Q100E/T101K/I103L/A104R/Q105A/A107P/N110S/S111D/T112Q/N134A/S315A/E321A): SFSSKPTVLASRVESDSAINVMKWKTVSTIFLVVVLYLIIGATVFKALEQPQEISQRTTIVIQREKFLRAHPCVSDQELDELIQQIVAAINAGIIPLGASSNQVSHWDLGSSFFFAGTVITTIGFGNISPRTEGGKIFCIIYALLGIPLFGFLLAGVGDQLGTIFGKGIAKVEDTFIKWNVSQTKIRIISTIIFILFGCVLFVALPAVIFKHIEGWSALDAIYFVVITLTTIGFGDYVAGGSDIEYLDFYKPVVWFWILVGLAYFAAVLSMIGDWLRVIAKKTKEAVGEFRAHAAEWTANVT

Turning to `c1ccc(-c2nnn[nH]2)c(Nc2cccc3c2CCCC3)c1` [BL-1249, (5,6,7,8-tetrahydro-naphthalen-1-yl)-[2-(1H-tetrazol-5-yl)-phenyl]-amine, reference compound], the “effect of activator (current potentiation at 0 mV) compared with wild type” value (“effect of activator … compared with wild type” for short) on K2P2.1(TREK-1) K271Q [1] and on K2P4.1(TRAAK) Q258K was “unchanged” in each case.
With `CC1(C)c2cc(Cl)ccc2N(CCc2nn[nH]n2)c2ccc(Cl)cc21` [ML67-33, reference compound], the “effect of activator … compared with wild type” value at K2P2.1(TREK-1) K271Q [1] and at K2P4.1(TRAAK) Q258K was “unchanged” each time.
As to `CS(=O)(=O)Nc1ccc(C(=O)NCc2ccc(Cl)cc2Cl)cc1` [ML335, N-[(2,4-dichlorophenyl)methyl]-4-methanesulfonamidobenzamide], the 50% effective concentration (EC50) on K2P2.1(TREK-1) [2] turned out to be 14.3 ± 2.7 µM; at K2P10.1(TREK-2), 5.2 ± 0.5 µM; on K2P4.1(TRAAK) Q258K, 16.2 ± 3 µM; at K2P2.1(TREK-1)cryst, 10.5 ± 2.7 µM; on K2P2.1(TREK-1) [5], 5.2 ± 0.8 µM. Besides, the activation of channel result at K2P4.1(TRAAK) was “not”. For the same compound, the sensitivity to activator entry on K2P2.1(TREK-1) K271Q [1] is given as “insensitive”. For the same compound, at K2P2.1(TREK-1) [3], the “rectification coefficient (I+100mV/I-100mV)” value is recorded as ~ 1. Besides, in [4], the “solubility in aqueous solutions” value is recorded as “insoluble”.
With `C=CS(=O)(=O)N[C@H]1CC[C@H](C(=O)NCc2ccc(Cl)cc2Cl)CC1` [ML335a, trans-N-[(2,4-dichlorophenyl)methyl]-4-ethenesulfonamidocyclohexane-1-carboxamide], the effect on channel entry on K2P2.1(TREK-1) [2] (Xenopus oocytes, dose response, K2P2.1(TREK-1)) is “no effect”.
Turning to `Cc1cc(Cl)ccc1OCCNC(=O)c1cccs1` [ML402, N-[2-(4-chloro-2-methylphenoxy)ethyl]thiophene-2-carboxamide], the concentration for a half-maximal effect (EC50) stood at 13.7 ± 7 µM at K2P2.1(TREK-1) [2]; 5.9 ± 1.6 µM at K2P10.1(TREK-2); 13.6 ± 1.5 µM on K2P4.1(TRAAK) Q258K; 14.9 ± 1.6 µM at K2P2.1(TREK-1)cryst; 5.9 ± 1.6 µM on K2P2.1(TREK-1) [5]. Besides, the activation of channel result on K2P4.1(TRAAK) is reported as “not”. Also, the sensitivity to activator result at K2P2.1(TREK-1) K271Q [1] is recorded as “insensitive”. Also, the “rectification coefficient (I+100mV/I-100mV)” value on K2P2.1(TREK-1) [3] is given as ~ 1. Besides, the “solubility in aqueous solutions” value in series [4] is on record as “insoluble”.
For `CCCCC/C=C\C/C=C\C/C=C\C/C=C\CCCC(=O)O` [arachidonic acid], the “effect of activator … compared with wild type” value at K2P2.1(TREK-1) K271Q [6] was “unchanged”.

These data come from article PMC5778891 (Nature, 2017).
